Values of other authors, collected in patent publication EP1569663B1, “IFOSFAMIDE COMPOSITIONS FOR PARENTERAL ADMINISTRATION AND A PROCESS FOR THEIR PREPARATION” (Bharat Serums & Vaccines Ltd., priority 2002, dated 2004).

Experiments:
[1] = in water
[2] = system: mouse; conditions: intravenous administration

O=P1(NCCCl)OCCCN1CCCl (centres unmarked) [Ifosfamide, 3-(2-chtoroethyl)-2-[(2-chloroethyl)amino]-tetrahydro-2H-1,3,2-oxazaphosphorin-2-oxide]
water solubility [1]: about 100 mg/ml
LD50 [2]: 338 mg/kg body weight
